Data on 25 compounds can be found in patent US9573954B2, “Pyrazolopyrimidine compounds” (University Health Network, priority 2012, dated 2017).

One assay has as its target T1, human TTK (Homo sapiens, UniProt P33981).
T1 construct: Active TTK was purchased from Invitrogen as an amino terminal GST fusion of full length human TTK; purchased Invitrogen
T1 sequence (P33981 1-857): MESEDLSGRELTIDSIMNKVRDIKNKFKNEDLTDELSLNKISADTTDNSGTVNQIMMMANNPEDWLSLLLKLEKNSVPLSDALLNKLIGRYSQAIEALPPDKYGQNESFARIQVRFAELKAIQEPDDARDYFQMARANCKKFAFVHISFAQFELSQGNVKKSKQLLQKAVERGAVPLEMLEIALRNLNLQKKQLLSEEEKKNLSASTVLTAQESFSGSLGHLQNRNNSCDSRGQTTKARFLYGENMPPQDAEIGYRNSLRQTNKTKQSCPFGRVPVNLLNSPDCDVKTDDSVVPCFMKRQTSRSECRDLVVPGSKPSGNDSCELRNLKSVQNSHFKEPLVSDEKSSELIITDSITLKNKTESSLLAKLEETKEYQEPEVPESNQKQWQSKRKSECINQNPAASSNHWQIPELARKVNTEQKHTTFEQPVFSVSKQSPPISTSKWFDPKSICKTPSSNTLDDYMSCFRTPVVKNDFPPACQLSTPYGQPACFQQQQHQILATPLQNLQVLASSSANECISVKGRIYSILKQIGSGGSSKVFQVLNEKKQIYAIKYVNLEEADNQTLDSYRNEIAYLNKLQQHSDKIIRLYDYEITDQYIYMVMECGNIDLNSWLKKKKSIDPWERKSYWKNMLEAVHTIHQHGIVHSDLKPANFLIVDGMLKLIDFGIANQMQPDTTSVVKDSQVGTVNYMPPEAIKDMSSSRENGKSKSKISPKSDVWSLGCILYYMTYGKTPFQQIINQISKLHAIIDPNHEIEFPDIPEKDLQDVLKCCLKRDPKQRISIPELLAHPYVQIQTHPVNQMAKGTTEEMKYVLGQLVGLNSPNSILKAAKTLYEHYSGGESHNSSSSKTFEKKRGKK
The experiment in a line: TTK inhibition assay (indirect ELISA). The class given is biochemical. As to conditions: read-out: TTK IC50 Range. As for the experimental part: Active TTK was purchased from Invitrogen as an amino terminal GST fusion of full length human TTK.
TTK activity was measured using an indirect ELISA detection system.
Compounds were pre-incubated in the presence of enzyme for 5 minutes prior to addition of ATP and the activity remaining quantified using the above described activity assay. The % Inhibition of a compound was determined using the following formula; % Inhibition=100×(1−(experimental value−background value)/(high activity control−background value)). The IC50 value was determined using a non-linear 4 point logistic curve fit (XLfit4, IDBS) with the formula; (A+(B/(1+((x/C)^D)))), where A=background value, B=range, C=inflection point, D=curve fit parameter.
Background: In an ELISA, binding on a coated surface is turned into a signal by an enzyme label.

For assay [1], the system named is ovarian cancer cells (OVCAR-3). The experiment in a line: Cancer cell line growth inhibition, Sulforhodamine B assay, OVCAR-3. The class given is cell-based. Particulars: read-out: Cancer Cell Line GI50 Range OVCAR-3. As for the experimental part: (§1) Breast cancer cells (MDA-MB-231 and MDA-MB-468), colon cancer cells (HCT116) and ovarian cancer cells (PA-1 and OVCAR-3) were seeded (1000 to 4000 in 80 μl per well depending on the cell growth rate) into 96 well plates 24 hours before compound overlay. Compounds were prepared as 10 mM stock solutions in 100% DMSO which were diluted with DMEM (Dulbecco's Modified Eagle's Medium) cell growth Medium (Invitrogen, Burlington, ON, Canada) containing 10% FBS (Fetal Bovine Serum) to concentrations ranging from 50 nM to 250 μM. Aliquots (20 μl) from each concentration were overlaid to 80 μl of the pre-seeded cells in the 96 well plates to make final concentrations of 10 nM to 50 μM. The cells were cultured for 5 days before the Sulforhodamine B assay (SRB) was performed to determine the compound's cell growth inhibition activity.
(§2) Sulforhodamine B (purchased from Sigma, Oakville, ON, Canada) is a water-soluble dye that binds to the basic amino acids of the cellular proteins. Thus, colorimetric measurement of the bound dye provides an estimate of the total protein mass that is related to the cell number. the cells are fixed in situ by gently aspirating off the culture media and adding 50 μl ice cold 10% Trichloroacetic Acid (TCA) per well and incubate at 4° C. for 30-60 min, The plates are washed with H2O five times and allowed to air dry for 5 min. Addition of 50 μl 0.4% (w/v) SRB solution in 1% (v/v) acetic acid to each well and incubation for 30 min at RT completes the staining reaction. Following staining, plates are washed four times with 1% acetic acid to remove unbound dye and then allowed to air dry for 5 min. The stain is solubilized with 100 μl of 10 mM Tris pH 10.5 per well. Absorbance is read at 570 nm.
(§3) The percentage (%) of relative growth inhibition was calculated by comparing to DMSO treated only cells (100%). GI50's were determined for compounds with cytotoxic activity. The GI50 was calculated using GraphPad PRISM software (GraphPad Software, Inc., San Diego, Calif., USA).
(§4) In Table 3 below, GI50 value ranges for compound examples against breast cancer cell lines (MDA-MB-468), colon cancer cell lines (HCT116) and ovarian cancer cell lines (OVCAR-3) are given.
(Sulforhodamine B stains cellular protein and so reports cell mass.)

The test system of assay [2] is colon cancer cells (HCT116). The experiment in a line: Cancer cell line growth inhibition, Sulforhodamine B assay, HCT116. The class given is cell-based. Particulars: read-out: Cancer Cell Line GI50 Range HCT116. How it is done:
as §1, §2, §3
(§5) In Table 1 below, GI50 value ranges for compound examples against breast cancer cell lines (MDA-MB-468), colon cancer cell lines (HCT116) and ovarian cancer cell lines (PA-1) are given.
In Table 2 below, GI50 value ranges for compound examples against breast cancer cell lines (MDA-MB-231), colon cancer cell lines (HCT116) and ovarian cancer cell lines (PA-1) are given.
as §4

Assay [3] relates to breast cancer cells (MDA-MB-468). The assay is described as follows: Cancer cell line growth inhibition, Sulforhodamine B assay, MDA-MB-468. Particulars: read-out: Cancer Cell Line GI50 Range MDA-MB-468. The class given is cell-based. How it is done: as §1, §2, §3, §5, §4
[4] abbreviates: Homo sapiens, OVCAR-3, OVCAR-3 ovarian cancer cell line.
Where [5] appears, read: Homo sapiens, HCT-116, HCT116 colon cancer cell line.
The mark [6] stands for this setting: Homo sapiens, MDA-MB-468, MDA-MB-468 breast cancer cell line.
The mark [7] stands for this setting: Homo sapiens, OVCAR-3 ovarian cancer cell line.
Where [8] appears, read: Homo sapiens, MDA-MB-468 breast cancer cell line.

SMILES strings stand for the structures. Read-outs that look alike come from different tables or passages of the source.

One may read the IC50 as the midpoint of a concentration-inhibition curve. As a reminder, the GI50 is the concentration giving 50% growth inhibition. In the case of `Cc1cc(-c2cnn3c(NCCN4CCC(F)CC4)cc(Oc4cccc(F)c4F)nc23)ccc1C(=O)NC1CC1` [Example C47, N-cyclopropyl-4-(5-(2,3-difluorophenoxy)-7-((2-(4-fluoropiperidin-1-yl)ethyl)amino)pyrazolo[1,5-a]pyrimidin-3-yl)-2-methylbenzamide], the IC50 at human TTK (100 μM ATP) is less than 100 nM. The GI50 in assay [1] (setting [4]), in assay [2] (setting [5]) and in assay [3] (setting [6]) was not above 100 nM throughout. Take `Cc1cc(-c2cnn3c(NC[C@H]4C[C@@](C)(O)C4)cc(NC4CCCC4)nc23)ccc1C(=O)NC1CC1` [Example C44, 4-(5-(cyclopentylamino)-7-((((1s,3s)-3-hydroxy-3-methylcyclobutyl)methyl)amino)pyr-azolo[1,5-a]pyrimidin-3-yl)-N-cyclopropyl-2-methylbenzamide]: at human TTK (100 μM ATP), the concentration for half-maximal inhibition (IC50) is less than 100 nM. The concentration for 50% growth inhibition (GI50) in assay [1] (setting [4]), in assay [2] (setting [5]) and in assay [3] (setting [6]) was not above 100 nM throughout. Take `Cc1cc(-c2cnn3c(NCC4CCOCC4)cc(N[C@H]4CCC[C@@H]4O)nc23)ccc1C(=O)NC1CC1` [Example C126]: on human TTK (100 μM ATP), the IC50 is less than 100 nM. The GI50 in assay [1] (OVCAR-3 ovarian cancer cell line), in assay [2] (HCT116 colon cancer cell line) and in assay [3] (MDA-MB-468 breast cancer cell line) was not above 100 nM in each case.

Turning to `Cc1cc(-c2cnn3c(NCC4CCOCC4)cc(NCCN4CCOCC4)nc23)ccc1C(=O)NC1CC1` [Example C114], the IC50 on human TTK (100 μM ATP) is less than 100 nM. Further, the GI50 in assay [1] (setting [4]), in assay [2] (setting [5]) and in assay [3] (setting [6]) was more than 500 nM throughout. For the compound `Cc1cc(-c2cnn3c(NC[C@H]4C[C@](C)(O)C4)cc(Oc4cccnc4)nc23)ccc1C(=O)NC1CC1` [Example C135], the GI50 is 100 to 500 nM in assay [1] (setting [7]), not above 100 nM in assay [2] (setting [5]) and not above 100 nM in assay [3] (setting [8]). Consider `Cc1cc(-c2cnn3c(NCC(C)(C)O)cc(NC4CCOCC4)nc23)ccc1C(=O)NC1CC1` [Example B32, N-cyclopropyl-4-(7-((2-hydroxy-2-methylpropyl)amino)-5-((tetrahydro-2H-pyran-4-yl)amino)pyrazolo[1,5-a]pyrimidin-3-yl)-2-methylbenzamide], for which the IC50 at human TTK (Table 2, 16 μM ATP (asterisk)) is less than 100 nM. `Cc1cc(-c2cnn3c(NC[C@@H]4CCCO4)cc(NC4CCOCC4)nc23)ccc1C(=O)NC1CC1` [Example C65]: at human TTK (100 μM ATP), the IC50 was less than 100 nM. Same read-out and setting: the same measure for `COC(C)(C)CNc1cc(N[C@H]2CCC[C@H]2O)nc2c(-c3ccc(C(=O)NC4CC4)c(C)c3)cnn12` [Example C129]: less than 100 nM; for `COC(C)(C)CNc1cc(N[C@@H](C(C)C)C(C)(C)O)nc2c(-c3ccc(C(=O)NC4CC4)c(C)c3)cnn12` [Example C128]: less than 100 nM.

Turning to `Cc1cc(-c2cnn3c(NCCN4CCOCC4)cc(O[C@@H]4CCOC4)nc23)ccc1C(=O)NC1CC1` [Example C137], the half-inhibitory concentration (IC50) at human TTK (100 μM ATP) is less than 100 nM. On to `O=C(NC1CC1)c1ccc(-c2cnn3c(NCCN4CCOCC4)nc(N4CCC(O)CC4)nc23)cc1` [Example A9, N-cyclopropyl-4-(2-(4-hydroxypiperidin-1-yl)-4-((2-morpholinoethyl)amino)pyrazolo[1,5-a][1,3,5]triazin-8-yl)benzamide], for which the IC50 on human TTK (Table 1, 16 μM ATP (asterisk)) is more than 500 nM.

For `Cc1cc(-c2cnn3c(NCC(C)C)cc(Nc4cccnc4)nc23)ccc1C(=O)NC1CC1` [Example C160], on human TTK (100 μM ATP), the 50% inhibitory concentration (IC50) was less than 100 nM. On the same count and under the same terms, to `Cc1cc(-c2cnn3c(NCCN4CCOCC4)cc(Nc4ccccc4)nc23)ccc1C(=O)NC1CC1` [Example C60] belongs less than 100 nM; to `Cc1cc(-c2cnn3c(NCCN4CCC(F)(F)CC4)cc(NC4CCCC4)nc23)ccc1C(=O)NC1CC1` [Example C184], less than 100 nM. On the same count and under the same terms, to `Cc1cc(-c2cnn3c(NCC4CCOCC4)cc(N4CC[C@@H](CO)C4)nc23)ccc1C(=O)NC1CC1` [Example C167] belongs less than 100 nM; to `Cc1cc(-c2cnn3c(NCC4CCOCC4)cc(N4CC5(CC(O)C5)C4)nc23)ccc1C(=O)NC1CC1` [Example C162], less than 100 nM; to `Cc1cc(-c2cnn3c(NCC4CCOCC4)cc(N4C5CCC4COC5)nc23)ccc1C(=O)NC1CC1` [Example C112], less than 100 nM. The same measure, in the same setting: the same measure for `Cc1cc(-c2cnn3c(NCCCS(C)(=O)=O)cc(NC4CCOCC4)nc23)ccc1C(=O)NC1CC1` [Example C140]: less than 100 nM. Consider `Cc1cc(-c2cnn3c(NC[C@H]4C[C@@](C)(O)C4)cc(Oc4cccnc4)nc23)ccc1C(=O)NC1CC1` [Example C43, N-cyclopropyl-4-(7-((((1s,3s)-3-hydroxy-3-methylcyclobutyl)methyl)amino)-5-(pyridin-3-yloxy)pyrazolo[1,5-a]pyrimidin-3-yl)-2-methylbenzamide], for which the GI50 in assay [1] (setting [7]), in assay [2] (setting [5]) and in assay [3] (setting [8]) was not above 100 nM each time.

In the case of `Cc1cc(-c2cnn3c(NC[C@@H]4CCCO4)cc(NC4CCCC4)nc23)ccc1C(=O)NC1CC1` [Example C64], the IC50 at human TTK (100 μM ATP) was less than 100 nM. Take `Cc1cc(-c2cnn3c(NCC4CCOCC4)cc(N4CC[C@@H](O)C4)nc23)ccc1C(=O)NC1CC1` [Example C142]: at human TTK (100 μM ATP), the IC50 lay in the range of 100 to 500 nM.

On to `Cc1cc(-c2cnn3c(NCC4CCOCC4)cc(Oc4ccncc4)nc23)ccc1C(=O)NC1CC1` [Example C50], for which the IC50 at human TTK (100 μM ATP) is more than 500 nM.

For `Cc1cc(-c2cnn3c(NCC4(N(C)C)CCOCC4)cc(Oc4ccccc4)nc23)ccc1C(=O)NC1CC1` [Example C106], at human TTK (100 μM ATP), the half-maximal inhibitory concentration (IC50) is 100 to 500 nM. The same measure, in the same setting: to `Cc1cc(-c2cnn3c(NCC4CCOCC4)cc(N4CCC(O)CC4)nc23)ccc1C(=O)NC1CC1` [Example C67] belongs less than 100 nM. For `COCCNc1cc(Oc2cccnc2)nc2c(-c3ccc(C(=O)NC4CC4)cc3)cnn12` [Example B4, N-cyclopropyl-4-(7-((2-methoxyethyl)amino)-5-(pyridin-3-yloxy)pyrazolo[1,5-a]pyrimidin-3-yl)benzamide], on human TTK (Table 2, 16 μM ATP (asterisk)), the IC50 is less than 100 nM.
